Experiment [1] concerns the target T1, p300 (Homo sapiens, UniProt Q09472).
T1 construct: host or cells: A549 P300 HiBit cells
Put plainly: P300 degradation, HiBit technology in A549 P300 HiBit cells (2 h). Format: cell-based. The settings on record: 2 hrs post treatment; for Dmax: A549, A549 P300 HiBit cells; for DC50: A549 P300 HiBit cells. The procedure, abridged: (§1)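 A549 cells carrying HiBit-tagged p300 or CBP, seeded overnight at 37 °C/5% CO2, then treated with serial compound dilutions from 10 mM DMSO stocks. Incubation was 2 h for p300 and 24 h for CBP, followed by HiBit lytic detection reagent for 10 min at room temperature. Luminescence read gave degradation potency and Dmax.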

For experiment [2], the target named is T2, CBP (Homo sapiens, UniProt Q92793).
T2 construct: host or cells: A549 CBP HiBit cells
Kind of experiment: CBP degradation, HiBit technology in A549 CBP HiBit cells (24 h). Format: cell-based. The settings on record: 24 hrs post treatment. The procedure, abridged:
as §1
A general note: HiBiT is a short tag that completes a luciferase, so light tracks the accessible tagged protein.

Structures are written as SMILES.

T1 sequence (Q09472 whole entry): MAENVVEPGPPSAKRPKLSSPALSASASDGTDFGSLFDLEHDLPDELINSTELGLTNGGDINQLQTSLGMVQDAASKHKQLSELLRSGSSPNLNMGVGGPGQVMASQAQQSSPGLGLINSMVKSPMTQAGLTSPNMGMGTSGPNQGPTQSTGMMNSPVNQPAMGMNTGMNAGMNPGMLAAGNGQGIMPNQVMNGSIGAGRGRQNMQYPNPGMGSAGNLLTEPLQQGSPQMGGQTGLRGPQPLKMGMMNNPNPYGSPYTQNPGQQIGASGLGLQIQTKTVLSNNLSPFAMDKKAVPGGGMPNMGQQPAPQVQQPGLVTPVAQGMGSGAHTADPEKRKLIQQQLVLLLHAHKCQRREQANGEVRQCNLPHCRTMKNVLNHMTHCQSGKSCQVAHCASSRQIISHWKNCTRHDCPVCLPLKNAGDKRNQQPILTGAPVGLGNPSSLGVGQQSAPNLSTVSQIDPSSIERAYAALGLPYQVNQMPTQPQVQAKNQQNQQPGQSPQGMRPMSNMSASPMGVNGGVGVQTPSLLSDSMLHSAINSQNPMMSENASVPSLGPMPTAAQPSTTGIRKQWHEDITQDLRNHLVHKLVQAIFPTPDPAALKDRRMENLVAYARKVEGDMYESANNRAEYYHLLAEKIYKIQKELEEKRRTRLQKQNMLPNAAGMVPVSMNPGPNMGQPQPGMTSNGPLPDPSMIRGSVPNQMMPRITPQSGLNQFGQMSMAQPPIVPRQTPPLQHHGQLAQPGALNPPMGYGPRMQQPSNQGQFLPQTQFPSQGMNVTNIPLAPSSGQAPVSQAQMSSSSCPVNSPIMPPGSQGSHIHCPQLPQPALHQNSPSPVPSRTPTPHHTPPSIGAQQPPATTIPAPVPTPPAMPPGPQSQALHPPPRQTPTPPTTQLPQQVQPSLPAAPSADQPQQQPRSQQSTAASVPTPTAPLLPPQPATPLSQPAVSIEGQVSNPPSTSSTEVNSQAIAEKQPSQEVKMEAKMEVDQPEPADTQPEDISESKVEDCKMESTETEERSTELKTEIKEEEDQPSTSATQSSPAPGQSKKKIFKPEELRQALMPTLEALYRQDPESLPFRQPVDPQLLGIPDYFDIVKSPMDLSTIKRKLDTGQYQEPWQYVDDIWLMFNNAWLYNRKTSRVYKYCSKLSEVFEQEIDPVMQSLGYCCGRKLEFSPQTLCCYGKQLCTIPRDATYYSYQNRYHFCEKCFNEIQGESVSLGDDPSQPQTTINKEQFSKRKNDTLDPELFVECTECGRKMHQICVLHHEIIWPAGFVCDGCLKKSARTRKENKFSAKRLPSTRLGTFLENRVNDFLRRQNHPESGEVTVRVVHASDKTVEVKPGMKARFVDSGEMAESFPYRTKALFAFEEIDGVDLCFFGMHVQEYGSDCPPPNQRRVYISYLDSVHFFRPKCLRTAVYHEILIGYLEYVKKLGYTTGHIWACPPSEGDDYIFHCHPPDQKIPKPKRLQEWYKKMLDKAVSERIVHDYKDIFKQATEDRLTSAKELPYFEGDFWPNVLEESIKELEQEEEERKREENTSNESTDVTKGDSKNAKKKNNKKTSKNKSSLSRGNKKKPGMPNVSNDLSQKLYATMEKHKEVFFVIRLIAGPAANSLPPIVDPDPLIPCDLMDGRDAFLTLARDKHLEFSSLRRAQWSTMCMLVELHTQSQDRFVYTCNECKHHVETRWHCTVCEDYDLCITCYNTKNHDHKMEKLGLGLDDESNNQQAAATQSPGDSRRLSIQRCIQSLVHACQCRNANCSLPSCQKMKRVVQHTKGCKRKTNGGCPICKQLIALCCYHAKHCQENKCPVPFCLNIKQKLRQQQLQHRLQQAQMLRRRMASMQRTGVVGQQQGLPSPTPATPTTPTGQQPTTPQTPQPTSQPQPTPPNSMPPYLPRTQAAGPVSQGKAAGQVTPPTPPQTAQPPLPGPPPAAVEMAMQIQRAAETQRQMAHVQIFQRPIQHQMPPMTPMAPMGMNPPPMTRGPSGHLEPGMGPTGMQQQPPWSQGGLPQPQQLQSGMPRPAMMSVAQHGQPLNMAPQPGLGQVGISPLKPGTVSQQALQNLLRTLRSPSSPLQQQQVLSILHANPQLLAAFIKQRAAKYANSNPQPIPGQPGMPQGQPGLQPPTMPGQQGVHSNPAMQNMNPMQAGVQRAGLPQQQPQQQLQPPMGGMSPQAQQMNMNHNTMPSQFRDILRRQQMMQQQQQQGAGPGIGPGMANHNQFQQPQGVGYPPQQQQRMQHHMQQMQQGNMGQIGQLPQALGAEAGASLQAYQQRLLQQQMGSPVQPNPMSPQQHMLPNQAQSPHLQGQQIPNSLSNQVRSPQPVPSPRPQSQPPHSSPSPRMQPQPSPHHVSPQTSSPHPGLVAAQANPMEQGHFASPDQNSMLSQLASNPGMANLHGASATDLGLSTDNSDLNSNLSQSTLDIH
T2 sequence (Q92793 whole entry): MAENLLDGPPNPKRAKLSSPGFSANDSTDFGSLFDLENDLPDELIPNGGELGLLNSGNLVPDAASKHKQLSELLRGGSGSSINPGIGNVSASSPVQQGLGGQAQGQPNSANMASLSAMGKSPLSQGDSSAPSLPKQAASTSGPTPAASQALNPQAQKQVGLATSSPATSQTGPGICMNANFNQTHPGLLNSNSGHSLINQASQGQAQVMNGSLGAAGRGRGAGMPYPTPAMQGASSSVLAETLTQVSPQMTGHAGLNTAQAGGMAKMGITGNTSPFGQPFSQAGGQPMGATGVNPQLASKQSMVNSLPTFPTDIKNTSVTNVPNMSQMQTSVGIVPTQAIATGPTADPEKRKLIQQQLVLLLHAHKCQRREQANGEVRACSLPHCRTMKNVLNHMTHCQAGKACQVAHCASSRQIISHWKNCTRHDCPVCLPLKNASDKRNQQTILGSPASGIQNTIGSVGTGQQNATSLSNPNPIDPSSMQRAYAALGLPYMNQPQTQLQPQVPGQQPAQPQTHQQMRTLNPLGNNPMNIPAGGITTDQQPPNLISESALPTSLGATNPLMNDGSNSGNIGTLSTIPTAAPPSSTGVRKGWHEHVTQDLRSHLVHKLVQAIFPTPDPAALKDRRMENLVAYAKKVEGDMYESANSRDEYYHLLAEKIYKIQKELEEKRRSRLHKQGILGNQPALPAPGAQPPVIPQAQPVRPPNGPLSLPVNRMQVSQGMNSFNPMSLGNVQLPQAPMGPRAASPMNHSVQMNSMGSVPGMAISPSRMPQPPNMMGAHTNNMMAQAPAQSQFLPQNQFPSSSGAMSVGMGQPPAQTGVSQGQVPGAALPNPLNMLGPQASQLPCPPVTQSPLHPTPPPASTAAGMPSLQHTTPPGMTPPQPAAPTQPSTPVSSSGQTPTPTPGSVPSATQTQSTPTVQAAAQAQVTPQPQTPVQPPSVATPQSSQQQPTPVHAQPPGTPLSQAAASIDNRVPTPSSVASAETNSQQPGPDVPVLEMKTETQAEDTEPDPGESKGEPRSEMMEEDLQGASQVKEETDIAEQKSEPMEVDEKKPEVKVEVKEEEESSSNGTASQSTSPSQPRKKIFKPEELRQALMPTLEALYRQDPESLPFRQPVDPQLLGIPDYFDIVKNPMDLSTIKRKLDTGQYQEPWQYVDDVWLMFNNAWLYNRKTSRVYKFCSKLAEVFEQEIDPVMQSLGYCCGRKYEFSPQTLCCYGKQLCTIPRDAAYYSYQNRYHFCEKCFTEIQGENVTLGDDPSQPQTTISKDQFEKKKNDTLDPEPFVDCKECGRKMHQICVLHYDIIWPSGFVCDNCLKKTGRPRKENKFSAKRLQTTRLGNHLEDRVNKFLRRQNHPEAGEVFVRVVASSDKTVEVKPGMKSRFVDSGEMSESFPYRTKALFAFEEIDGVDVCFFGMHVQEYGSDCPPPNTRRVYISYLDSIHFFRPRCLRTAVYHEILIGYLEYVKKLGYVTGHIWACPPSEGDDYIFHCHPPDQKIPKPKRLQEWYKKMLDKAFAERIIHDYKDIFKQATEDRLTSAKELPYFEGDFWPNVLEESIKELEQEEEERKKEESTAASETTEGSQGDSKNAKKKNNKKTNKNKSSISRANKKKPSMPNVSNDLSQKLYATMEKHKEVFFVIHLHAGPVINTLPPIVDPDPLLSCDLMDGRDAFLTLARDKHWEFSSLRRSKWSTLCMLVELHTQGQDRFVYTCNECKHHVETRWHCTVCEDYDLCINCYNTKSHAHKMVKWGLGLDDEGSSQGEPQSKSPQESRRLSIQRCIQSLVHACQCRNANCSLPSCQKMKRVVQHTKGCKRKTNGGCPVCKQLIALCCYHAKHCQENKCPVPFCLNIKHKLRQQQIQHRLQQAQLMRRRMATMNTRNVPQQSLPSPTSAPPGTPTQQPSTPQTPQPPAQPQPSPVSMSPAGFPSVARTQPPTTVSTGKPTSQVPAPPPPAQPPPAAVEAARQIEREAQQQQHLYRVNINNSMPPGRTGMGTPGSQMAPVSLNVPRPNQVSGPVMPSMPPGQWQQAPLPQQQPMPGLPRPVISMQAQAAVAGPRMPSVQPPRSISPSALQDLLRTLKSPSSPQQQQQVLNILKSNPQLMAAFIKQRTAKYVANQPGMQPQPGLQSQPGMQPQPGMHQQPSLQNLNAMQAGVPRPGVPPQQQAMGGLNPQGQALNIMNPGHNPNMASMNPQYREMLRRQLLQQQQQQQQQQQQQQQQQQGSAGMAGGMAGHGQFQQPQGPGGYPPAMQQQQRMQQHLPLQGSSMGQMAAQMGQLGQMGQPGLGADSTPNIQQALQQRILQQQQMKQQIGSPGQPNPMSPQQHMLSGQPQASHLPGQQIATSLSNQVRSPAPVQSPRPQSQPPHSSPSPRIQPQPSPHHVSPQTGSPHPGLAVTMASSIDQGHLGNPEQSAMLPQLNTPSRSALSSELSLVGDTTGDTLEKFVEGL

One may read the Dmax as the greatest extent of degradation seen. A high value points to deep degradation. What is called DC50 is the midpoint of the concentration-degradation curve. A lower DC50 goes with a more potent degrader. In experiment [1], `CCc1cc(-c2cccc3cc(-c4ccc(C(=O)NCC#Cc5ccc6cnn(C7CCC(=O)NC7=O)c6c5)nc4)ncc23)c2cc(C)c(=O)n(C)c2c1` (stereo not shown) [Example B5, N-(3-(1-(2,6-Dioxopiperidin-3-yl)-1H-indazol-6-yl)prop-2-yn-1-yl)-5-(8-(7-ethyl-1,3-dimethyl-2-oxo-1,2-dihydroquinolin-5-yl)isoquinolin-3-yl)picolinamide] registered a Dmax greater than 80% and a half-maximal degradation concentration (DC50) of 1 to 9.9 nM. In experiment [2], this compound gave a DC50 greater than 1000 nM and a maximal degradation (Dmax) of less than 20%.
For `Cc1cc2c(-c3cccc4cc(-c5ccc(C(=O)NCC#Cc6ccc7occ(C8CCC(=O)NC8=O)c7c6)nc5)ncc34)nc(N3CCOCC3)cc2n(C)c1=O` (stereo not shown) [Example B92, 5-(8-(1,3-dimethyl-7-morpholino-2-oxo-1,2-dihydro-1,6-naphthyridin-5-yl)isoquinolin-3-yl)-N-(3-(3-(2,6-dioxopiperidin-3-yl)benzofuran-5-yl)prop-2-yn-1-yl)picolinamide] the same measures were greater than 80%, 1 to 9.9 nM, 10 to 99 nM and 20 to 39%.
For `CC(C)c1cc(-c2cccc3cc(-c4ccc(C(=O)NCC#Cc5ccc6occ(C7CCC(=O)NC7=O)c6c5)nc4)ncc23)cc2c1n(C)c(=O)n2C` (stereo not shown) [Example A23, N-(3-(3-(2,6-Dioxopiperidin-3-yl)benzofuran-5-yl)prop-2-yn-1-yl)-5-(8-(7-isopropyl-1,3-dimethyl-2-oxo-2,3-dihydro-1H-benzo[d]imidazol-5-yl)isoquinolin-3-yl)picolinamide] the same measures were greater than 80%, 1 to 9.9 nM, greater than 1000 nM and less than 20%.
As to `Cc1cc2c(N3CCCc4nc(-c5ccc(C(=O)NCC#Cc6ccc7occ(C8CCC(=O)NC8=O)c7c6)nc5)ncc43)nc(N3CC(F)C3)cc2n(C)c1=O` (stereo not shown) [Example B68, N-(3-(3-(2,6-dioxopiperidin-3-yl)benzofuran-5-yl)prop-2-yn-1-yl)-5-(5-(7-(3-fluoroazetidin-1-yl)-1,3-dimethyl-2-oxo-1,2-dihydro-1,6-naphthyridin-5-yl)-5,6,7,8-tetrahydropyrido [3,2-d]pyrimidin-2-yl)picolinamide], the maximal degradation (Dmax) in experiment [1] is 60 to 79%; in experiment [2], less than 20%. For the same compound, the half-maximal degradation concentration (DC50) was 1 to 9.9 nM in experiment [1] and greater than 1000 nM in experiment [2].
For `Cc1cc2c(N3CCCc4nc(-c5cnc(C(=O)NCC#Cc6cc7c(C8CCC(=O)NC8=O)cccc7o6)cn5)ncc43)cc(C3CCOCC3)cc2n(C)c1=O` (stereo not shown) [Example B87, 5-(5-(1,3-dimethyl-2-oxo-7-(tetrahydro-2H-pyran-4-yl)-1,2-dihydroquinolin-5-yl)-5,6,7,8-tetrahydropyrido[3,2-d]pyrimidin-2-yl)-N-(3-(4-(2,6-dioxopiperidin-3-yl)benzofuran-2-yl)prop-2-yn-1-yl)pyrazine-2-carboxamide] the same measures were 60 to 79%, less than 20%, 1 to 9.9 nM and greater than 1000 nM.
For `CN1CCN(c2nc(-c3cccc4cc(-c5ccc(C(=O)NCC#Cc6ccc7occ(C8CCC(=O)NC8=O)c7c6)nc5)ncc34)cc3c2n(C)c(=O)n3C)CC1` (stereo not shown) [Example A102, 5-(8-(1,3-dimethyl-4-(4-methylpiperazin-1-yl)-2-oxo-2,3-dihydro-1H-imidazo[4,5-c]pyridin-6-yl)iso-quinolin-3-yl)-N-(3-(3-(2,6-dioxopiperidin-3-yl)benzofuran-5-yl)prop-2-yn-1-yl) picolinamide] the same measures were greater than 80%, less than 20%, less than 1 nM and greater than 1000 nM.
`Cc1cc(-c2cc3cccc(-c4ccc5c(c4)n(C)c(=O)n5C)c3cn2)cnc1C(=O)NCC#Cc1cc2c([C@H]3CCC(=O)NC3=O)cccc2o1` [Example A181, (R)-5-(8-(1,3-dimethyl-2-oxo-2,3-dihydro-1H-benzo [d]imidazol-5-yl)isoquinolin-3-yl)-N-(3-(4-(2,6-dioxopiperidin-3-yl)benzofuran-2-yl)prop-2-yn-1-yl)-3-methylpicolinamide]: the Dmax in experiment [1] is greater than 80%; in experiment [2], less than 20%. Also, the DC50 in experiment [1] lay in the range of 1 to 9.9 nM; in experiment [2], 100 to 999 nM.
With `Cn1c(=O)n(C)c2c(N3CC4CC(C3)O4)nc(-c3cccc4cc(-c5ccc(C(=O)NCC#Cc6cc7c(C8CCC(=O)NC8=O)cccc7o6)nc5)ncc34)cc21` (stereo not shown) [Example A210, 5-(8-(4-(6-oxa-3-azabicyclo[3.1.1]heptan-3-yl)-1,3-dimethyl-2-oxo-2,3-dihydro-1H-imidazo[4,5-c]pyridin-6-yl)isoquinolin-3-yl)-N-(3-(4-(2,6-dioxopiperidin-3-yl)benzofuran-2-yl)prop-2-yn-1-yl)picolinamide], in experiment [1], the maximal degradation (Dmax) is greater than 80% and the half-maximal degradation concentration (DC50) is less than 1 nM. For the same compound, in experiment [2], the half-maximal degradation concentration (DC50) was greater than 1000 nM and the Dmax was less than 20%.
On to `Cc1cc2c(N3CCCc4nc(-c5ccc(C(=O)NCC#Cc6ccc7c(c6)c(C6CCC(=O)NC6=O)nn7C)nc5)ncc43)cc(C3CCOCC3)cc2n(C)c1=O` (stereo not shown) [Example B154, 5-(5-(1,3-dimethyl-2-oxo-7-(tetrahydro-2H-pyran-4-yl)-1,2-dihydroquinolin-5-yl)-5,6,7,8-tetrahydropyrido[3,2-d]pyrimidin-2-yl)-N-(3-(3-(2,6-dioxopiperidin-3-yl)-1-methyl-1H-indazol-5-yl)prop-2-yn-1-yl)picolinamide], for which the Dmax in experiment [1] was greater than 80%; in experiment [2], 60 to 79%. The 50% degradation concentration (DC50) in experiment [1] and in experiment [2] was 1 to 9.9 nM in each case.
As for `Cn1c(=O)n(C)c2c(F)cc(-c3cccc4cc(-c5ccc(C(=O)NCC#Cc6ccc7occ(C8CCC(=O)NC8=O)c7c6)nc5)ncc34)cc21` (stereo not shown) [Example A64, N-(3-(3-(2,6-dioxopiperidin-3-yl)benzofuran-5-yl)prop-2-yn-1-yl)-5-(8-(7-fluoro-1,3-dimethyl-2-oxo-2,3-dihydro-1H-benzo[d]imidazol-5-yl)isoquinolin-3-yl)picolinamide], the maximal degradation (Dmax) in experiment [1] was greater than 80%; in experiment [2], less than 20%. The DC50 was 1 to 9.9 nM in experiment [1] and greater than 1000 nM in experiment [2].
For `CC(C)c1cc(-c2cccc3cc(-c4ccc(C(=O)NCC#Cc5cc6c(C7CCC(=O)NC7=O)nccc6s5)nc4)ncc23)cc2c1n(C)c(=O)n2C` (stereo not shown) [Example A208, N-(3-(4-(2,6-dioxo-piperidin-3-yl)thieno[3,2-c]pyridin-2-yl)prop-2-yn-1-yl)-5-(8-(7-isopropyl-1,3-dimethyl-2-oxo-2,3-dihydro-1H-benzo[d]imidazol-5-yl)isoquinolin-3-yl)picolinamide] the same measures were greater than 80%, 60 to 79%, 1 to 9.9 nM and 10 to 99 nM.
Consider `Cc1cc(-c2ncc3c(n2)OCCN3c2ccc3c(c2)n(C)c(=O)n3C)cnc1C(=O)NCC#Cc1cc2c(C3CCC(=O)NC3=O)ccc(F)c2o1` (stereo not shown) [Example A203, 5-(5-(1,3-dimethyl-2-oxo-2,3-dihydro-1H-benzo[d]imidazol-5-yl)-6,7-dihydro-5H-pyrimido[4,5-b][1,4]oxazin-2-yl)-N-(3-(4-(2,6-dioxopiperidin-3-yl)-7-fluoro-benzofuran-2-yl)prop-2-yn-1-yl)-3-methylpicolinamide], for which the maximal degradation (Dmax) was 60 to 79% in experiment [1] and less than 20% in experiment [2]. Moreover, the DC50 in experiment [1] was 10 to 99 nM; in experiment [2], greater than 1000 nM.
In experiment [1], `Cc1cc(-c2ncc3c(n2)CCCN3c2cc(C3CCOCC3)cc3c2cc(C)c(=O)n3C)cnc1C(=O)NCC#Cc1cc2c(C3CCC(=O)NC3=O)cccc2s1` (stereo not shown) [Example B165, 5-(5-(1,3-dimethyl-2-oxo-7-(tetrahydro-2H-pyran-4-yl)-1,2-dihydroquinolin-5-yl)-5,6,7,8-tetrahydropyrido[3,2-d]pyrimidin-2-yl)-N-(3-(4-(2,6-dioxopiperidin-3-yl)benzo[b]thiophen-2-yl)prop-2-yn-1-yl)-3-methylpicolinamide] returned a maximal degradation (Dmax) greater than 80% and a half-maximal degradation concentration (DC50) of 1 to 9.9 nM. Also, in experiment [2], the half-maximal degradation concentration (DC50) was 10 to 99 nM and the Dmax was 20 to 39%.
In the case of `Cc1cc2c(N3CCCc4nc(-c5ccc(C(=O)NCC#Cc6cc7c(C8CCC(=O)NC8=O)cccc7o6)nc5)ncc43)nc(N3CCC(C)(O)CC3)cc2n(C)c1=O` (stereo not shown) [Example B162, N-(3-(4-(2,6-dioxopiperidin-3-yl)benzofuran-2-yl)prop-2-yn-1-yl)-5-(5-(7-(4-hydroxy-4-methylpiperidin-1-yl)-1,3-dimethyl-2-oxo-1,2-dihydro-1,6-naphthyridin-5-yl)-5,6,7,8-tetrahydropyrido[3,2-d]pyrimidin-2-yl) picolinamide], in experiment [1], the Dmax is greater than 80% and the DC50 fell in the range of 1 to 9.9 nM. For the same compound, in experiment [2], the DC50 is greater than 1000 nM and the maximal degradation (Dmax) is less than 20%.
In the case of `CCn1c(=O)n(C)c2c(N3CCOCC3)nc(-c3cccc4cc(-c5ccc(C(=O)NCC#Cc6ccc7occ(C8CCC(=O)NC8=O)c7c6)nc5)ncc34)cc21` (stereo not shown) [Example A108, N-(3-(3-(2,6-dioxo-piperidin-3-yl)benzofuran-5-yl)prop-2-yn-1-yl)-5-(8-(1-ethyl-3-methyl-4-morpholino-2-oxo-2,3-dihydro-1H-imidazo[4,5-c]pyridin-6-yl)isoquinolin-3-yl)picolinamide], the Dmax in experiment [1] was greater than 80%; in experiment [2], less than 20%. The values for the half-maximal degradation concentration (DC50) in experiment [1] and in experiment [2] were 1 to 9.9 nM and greater than 1000 nM, respectively.
For `Cc1cc(-c2ccc(N(C)c3cc(C(C)C)c4c(c3)n(C)c(=O)n4C)cn2)cnc1C(=O)NCC#Cc1cccc(NC2CCC(=O)NC2=O)c1` (stereo not shown) [Example A34, N-(3-(3-((2,6-Dioxopiperidin-3-yl)amino)phenyl)prop-2-yn-1-yl)-5-((7-isopropyl-1,3-dimethyl-2-oxo-2,3-dihydro-1H-benzo[d]imidazol-5-yl)(methyl)amino)-5′-methyl-[2,3′-bipyridine]-6′-carboxamide] the same measures were greater than 80%, less than 20%, 10 to 99 nM and greater than 1000 nM.

The record behind these values is patent US20250114345A1, “COMPOUNDS AND COMPOSITIONS AS CBP/P300 DEGRADERS AND USES THEREOF” (Oncopia Therapeutics, Inc. d/b/a/ SK Life Science Labs, priority 2023, published 2025).
